{
  "source": "patent US20130136772A1",
  "about": "“REGULATION OF IMMUNE RESPONSE BY COLOCYNTHIN AND/OR ITS DERIVATIVES” (priority 2010, published 2013)",
  "key": {"[1]": {"tested_on": "macrophage phagocytic response", "experiment": "Clearance rate of carbon particles from the circulation (phagocytic index, in vivo)", "design": "species or system mice", "method": "K., Sharma, M. L., Kaul, A and Khajuria, A. (1986) Immunomodulating agents of plant origin. 1. Preliminary screening. Journal of Ethnopharmacology. 18, 133-141.] Blood samples were collected before and at intervals varying between 2 and 90 min after carbon injection. An aliquot (10 μL) of blood samples were lysed with 2mL of 0.1% acetic acid and the transparency determined spectrophotometrically at 675 nm (Uvikon 810, spectrophotometer, Kontron Ltd., Switzerland) (Hudson and Hay, 1980). AD-B-63B was administered orally for 7 days and 30 min prior to the carbon injection. The rate of carbon clearance termed as phagocytic index was calculated (Table 4)."}, "IL-2": {"tested_on": "IL-2", "experiment": "Intracellular IL-2 expression in SRBC immunised mice", "type": "in vivo, Swiss albino mice", "conditions": "graded doses; most significant suppression at 10 mg/kg p.o.", "method": "Estimation of intracellular cytokines: The animals were immunized as mentioned above. After 6 days of drug administration, the animals were challenged on day 7. After 48 h of challenge, the blood was collected in the tubes containing EDTA (anti-coagulant) from retro-orbital plexes of animals to determine the effect of test material on the expression of intracellular IL-2 and IFN-γ (Th1) and IL-4 (Th2) cytokines. In this study, PE labeled IL-2 monoclonal antibody was used in one set and PE labeled IFN-γ and FITC labelled IL-4 monoclonal antibody was used in the other set of experimentation (FIG. 7, 8, 9)."}, "[2]": {"tested_on": "peritoneal murine macrophages", "experiment": "Phagocytosis of heat killed Candida albicans by murine macrophages (in vitro)", "type": "cell-based", "method": "The method of Lehrer (1981) [Lehrer, R. I. Ingestion and destruction of Candida albicans. (1981) In: Methods for studying mono-nuclear phagocytes. Eds. Adams, D. O., Edelson, P. J. and Koren, H. (Academic Press, New York) 693-7081 was followed. The percentage and average number of Candida albicans cells (heatkilled) ingested by peritoneal murine macrophages was calculated. AD-B-63B was tested at the doses of 1, 2.5, Sand 10 μg/mL (Table 4)."}, "IL-1 beta": {"tested_on": "IL-1 beta", "experiment": "In vivo IL-1 beta estimation in serum of LPS challenged mice", "design": "species or system balb/c mice", "conditions": "1, 2.5, 5 and 10 mg/kg oral for 6 days, LPS 1 mg/kg i.v., serum 90 min after LPS", "method": "(§1) Invivo experiments were carried out using balb/c mice that were orally administrated with graded oral doses of AD-B-63B (1, 2.5, 5 and 10 mg/kg) for 6 days and challenged with LPS. Nitric oxide (NO) is an important mediator of diverse physiologic and pathologic processes, including many inflammatory diseases [Abramson S B, Amin A R, Clancy R M, Attur M, (2001). The role of nitric oxide in tissue destruction. Best Practice & Research Clinical Rheumatology; 15: 831-845]. Several lines of evidence implicate NO in the pathogenesis of inflammation. For example, rodents in animal models of arthritis generate abundant quantities of NO, as reflected in high levels of serum and urinary NO that develop in association with disease manifestations [Stefanovic-Racic M, Meyers K, Meschter C, Coffey J W, Hoffman R A, Evans C H, (1994). Monomethyl arginine, an inhibitor of nitric oxide synthase, suppresses the development of adjuvant arthritis in rats. Arthritis & Rheumatism; 37: 1062-1069.] [McCartney-Francis N, Allen J B, Mizel D E, Albina J E, Xie Q W, Nathan C F, Wahl S M, (1993). Suppression of arthritis by an inhibitor of nitric oxide synthase. Journal of Experimental Medicine; 178: 749-754.] [Weinberg J B, (1998). […] TNF-α, IL-1 beta and Nitric oxide production was evaluated by a commercial ELISA kits (R&D Systems) in serum from AD-B-63B treated mice, 90 min after LPS injection."}, "TNF-α": {"tested_on": "TNF-α", "experiment": "In vivo TNF-α estimation in serum of LPS challenged mice", "design": "species or system balb/c mice", "conditions": "1, 2.5, 5 and 10 mg/kg oral for 6 days, LPS 1 mg/kg i.v., serum 90 min after LPS", "method": "as §1"}, "[3]": {"tested_on": "Interleukin-1beta (IL-1β)", "experiment": "Extracellular IL-1β in LPS stimulated murine neutrophils (ELISA, in vitro)", "type": "cell-based", "conditions": "for Concentration of IL-1β produced Mean ± S.E.: LPS 10 ng/ml, 4 hr", "method": "Neutrophils were separated from whole blood by Histopaque gradient method (Histopaque-No. 1077). Cell count was adjusted to approximately 10^5/[…]. Lipopolysaccharide, at the concentration of 10 ng/ml was used as stimulus in in-vitro studies. […] Extracellular IL-1β was estimated through ELISA (Table 2) [Weir, R. E., Morgan, A. R., Britton, W. J., Butlin, C. R., Dockrell, H. M., 1994. Development of a whole blood assay to measure T cell responses to leprosy: a new tool for immuno-epidemiological fields studies of leprosy immunity. J. Immunol. Methods. 176, 93; Hussain, R., Kaleem, A., Shahid, F., Dojki, M., Jamil, B., Mehmood, H., Dawood, G., Dockrell, H., 2002. Cytokine profiles using whole blood assays can discriminate between tuberculosis patients and healthy endemic controls in a BCG-vaccinated population. J. Immunol. Methods. 264, 95-108]"}, "Nitric oxide (NO)": {"tested_on": "Nitric oxide (NO)", "experiment": "In vivo nitric oxide estimation in serum of LPS challenged mice", "design": "species or system balb/c mice", "conditions": "1, 2.5, 5 and 10 mg/kg oral for 6 days, LPS 1 mg/kg i.v., serum 90 min after LPS", "method": "as §1"}},
  "note": "Values joined by “and” are separate entries in the source; they are usually repeats but may differ in a detail not shown here. Identical values can stand only once.",
  "data": [
    {"smiles": "CC(=O)OC(C)(C)/C=C/C(=O)[C@](C)(O)[C@H]1[C@H](O)C[C@@]2(C)[C@@H]3CC=C4[C@@H](C=C(O[C@@H]5O[C@H](CO)[C@@H](O)[C@H](O)[C@H]5O)C(=O)C4(C)C)[C@]3(C)C(=O)C[C@]12C", "note": "[AD-B-63B, 2-O-β-D-glucopyranosyl cucurbitacin E]", "values": [
      {"measurement": "percent decrease in phagocytic index", "setting": "[1]; 1 mg/kg", "result": "(14.28%↓)"},
      {"measurement": "Phagocytic index [in vivo study] Mean ± S.E.", "setting": "[1]; 1 mg/kg orally for 7 days", "result": "1.08 ± 0.09"},
      {"measurement": "percent decrease in phagocytic index", "setting": "[1]; 5 mg/kg", "result": "(26.98%↓)"},
      {"measurement": "Phagocytic index [in vivo study] Mean ± S.E.", "setting": "[1]; 5 mg/kg orally for 7 days", "result": "0.92 ± 0.04"},
      {"measurement": "percent decrease in phagocytic index", "setting": "[1]; 10 mg/kg", "result": "(26.19%↓)"},
      {"measurement": "Phagocytic index [in vivo study] Mean ± S.E.", "setting": "[1]; 10 mg/kg orally for 7 days", "result": "0.93 ± 0.07"},
      {"measurement": "decrease in phagocytic index", "setting": "[1]; dose range of 1-10 mg/kg, oral for 7 days", "result": "14.28-26.19%"},
      {"measurement": "expression of intracellular IL-2", "setting": "IL-2", "result": "decrease"},
      {"measurement": "% phagocytosis [in vitro study] Mean ± S.E.", "setting": "[2]; 1 μg/ml", "result": "24.00 ± 2.32", "unit": "%"},
      {"measurement": "percent decrease in phagocytosis", "setting": "[2]; 1 μg/ml", "result": "(10.48%↓)"},
      {"measurement": "% phagocytosis [in vitro study] Mean ± S.E.", "setting": "[2]; 5 μg/ml", "result": "18.22 ± 2.11", "unit": "%"},
      {"measurement": "% phagocytosis [in vitro study] Mean ± S.E.", "setting": "[2]; 10 μg/ml", "result": "17.33 ± 1.42", "unit": "%"},
      {"measurement": "Level of serum IL-1 beta", "setting": "IL-1 beta", "result": "significant reduction"},
      {"measurement": "Level of serum TNF-α", "setting": "TNF-α", "result": "significant reduction"},
      {"measurement": "% activity IL-1β expression against LPS control (decrease)", "setting": "[3]; 0.5 μg/ml", "result": "10.25↓ %"},
      {"measurement": "Concentration of IL-1β produced Mean ± S.E.", "setting": "[3]; 0.5 μg/ml", "result": "120.91 ± 2.61", "unit": "pg/mL"},
      {"measurement": "% activity IL-1β expression against LPS control (decrease)", "setting": "[3]; 1 μg/ml", "result": "18.66↓ %"},
      {"measurement": "Concentration of IL-1β produced Mean ± S.E.", "setting": "[3]; 1 μg/ml", "result": "109.58 ± 3.21", "unit": "pg/mL"},
      {"measurement": "% activity IL-1β expression against LPS control (decrease)", "setting": "[3]; 5.0 μg/ml", "result": "30.90% and 30.90↓ %"},
      {"measurement": "Concentration of IL-1β produced Mean ± S.E.", "setting": "[3]; 5.0 μg/ml", "result": "93.08 ± 2.61", "unit": "pg/mL"},
      {"measurement": "% activity IL-1β expression against LPS control (decrease)", "setting": "[3]; 10.0 μg/ml", "result": "34.96% and 34.96↓ %"},
      {"measurement": "Concentration of IL-1β produced Mean ± S.E.", "setting": "[3]; 10.0 μg/ml", "result": "87.61 ± 1.99", "unit": "pg/mL"},
      {"measurement": "Concentration of IL-1β produced Mean ± S.E.", "setting": "[3]; […]", "result": "106.66 ± 2.44", "unit": "pg/mL"},
      {"measurement": "Level of serum NO", "setting": "Nitric oxide (NO)", "result": "significant reduction"}
    ]}
  ]
}
